Measurements: patent US20090054332A1, “THOMBOPOIETIN PEPTIDE CONJUGATES” (CONJUCHEM BIOTECHNOLOGIES, INC., priority 2007, published 2009)
Where no end group is shown, it is not given here. Side-chain parts run from the residue outwards. [ ]: non-standard residue; d: D form. The star is where a group is joined. K(MPA) = lysine carrying the MPA reactive group; Propanoyl(3-maleimido) = O=C1C=CC(=O)N1CCC(=O)*; MPA = maleimido propionic acid reactive group; Aoc = NCCCCCCCC(=O)O

Test system: Platelet count
Test: In vivo potency: platelet count after a single injection in CD-1 mice
Parameters: species or system mouse
Details: female CD-1 mice, single intravenous injection, 10 nmol/kg, 6 days postdose vs prior to dosing, n=4/group
Experimental: Ten to twelve-week old female CD-1 mice were administered with a single injection of the TPO derivatives indicated below at 10 nmol/kg (n=4/group). The DAC™ compounds in Table 4 are variants of TPO peptides modified to include an MPA reactive group, thereby forming an MPA-modified unconjugated peptides. The DAC™ compounds in Table 4 were administered intravenously. Albumin conjugates of the DAC™ compounds (also referred to herein as Preformed Conjugates (PC)) were injected subcutaneously. For each mouse, a blood sample was collected prior to dosing and 6 days postdose via the […]. Platelet counts were measured using an ABC Vet analyzer using standard procedures.
Platelet count fold increases are reported in Table 4 and 5 for MPA-modified TPO peptide and the albumin TPO conjugate, respectively.

Substance | Platelet Count Fold Increase [fold]
(reactive group)-GGGGG-ARAALWQRLTPGEI-GGGGGGGG-ARAALWQRLTPGEI ({Propanoyl(3-maleimido)}-GGGGGARAALWQRLTPGEIGGGGGGGGARAALWQRLTPGEI) [MPA-modified form of SEQ ID NO: 125, unconjugated DAC compound] | <3
(reactive group)-GGGGG-ARAALWQRLTPGEI-GGGGGGGG-IEGPTLRQWLAARA ({Propanoyl(3-maleimido)}-GGGGGARAALWQRLTPGEIGGGGGGGGIEGPTLRQWLAARA) [MPA-modified form of SEQ ID NO: 121, unconjugated DAC compound] | <3
(reactive group)-GGGGG-IEGPTLRQWLAARA-GGGGGGGG-ARAALWQRLTPGEI ({Propanoyl(3-maleimido)}-GGGGGIEGPTLRQWLAARAGGGGGGGGARAALWQRLTPGEI) [MPA-modified form of SEQ ID NO: 117, unconjugated DAC compound] | <3
(reactive group)-GGGGG-IEGPTLRQWLAARA-GGGGGGGG-IEGPTLRQWLAARA ({Propanoyl(3-maleimido)}-GGGGGIEGPTLRQWLAARAGGGGGGGGIEGPTLRQWLAARA) [MPA-modified form of SEQ ID NO: 168, unconjugated DAC compound] | 5.1
(reactive group)-GGGGG-IEGPTLRQWLAARA-GGGGGGGG-LQGPTLRAWRAGMA ({Propanoyl(3-maleimido)}-GGGGGIEGPTLRQWLAARAGGGGGGGGLQGPTLRAWRAGMA) [MPA-modified form of SEQ ID NO: 185, unconjugated DAC compound] | <3
(reactive group)-GGGGG-LQGPTLRAWRAGMA-GGGGGGGG-IEGPTLRQWLAARA ({Propanoyl(3-maleimido)}-GGGGGLQGPTLRAWRAGMAGGGGGGGGIEGPTLRQWLAARA) [MPA-modified form of SEQ ID NO: 184, unconjugated DAC compound] | <3
Ac-ARAALWQRLTPGEI-GGGGGGGG-ARAALWQRLTPGEI-K(OA-reactive group) (Ac-ARAALWQRLTPGEIGGGGGGGGARAALWQRLTPGEIK([Aoc-Propanoyl(3-maleimido)])) [MPA-modified form of SEQ ID NO: 127, unconjugated DAC compound] | <3
Ac-ARAALWQRLTPGEI-GGGGGGGG-IEGPTLRQWLAARAI-K(OA-reactive group) (Ac-ARAALWQRLTPGEIGGGGGGGGIEGPTLRQWLAARAIK([Aoc-Propanoyl(3-maleimido)])) [MPA-modified form of SEQ ID NO: 123, unconjugated DAC compound] | <3
IEGPTLRQWLAARA-GGGGGGGG-IEGPTLRQWLAARA-(OA)-K-(reactive group) (IEGPTLRQWLAARAGGGGGGGGIEGPTLRQWLAARA-{Aoc-K(MPA)}) [MPA-modified form of SEQ ID NO: 190, unconjugated DAC compound] | 5.0
IEGPTLRQWLAARA-GGGGGGGG-IEGPTLRQWLAARA-K-OA-OA-(reactive group) (IEGPTLRQWLAARAGGGGGGGGIEGPTLRQWLAARAK-{Aoc-Aoc-MPA}; not fully specified) [MPA-modified form of SEQ ID NO: 170, unconjugated DAC compound] | 4.7
IEGPTLRQWLAARA-GGGGGGGG-IEGPTLRQWLAARA-OA-OA-K-(reactive group) (IEGPTLRQWLAARAGGGGGGGGIEGPTLRQWLAARA-{Aoc-Aoc-K(MPA)}) [MPA-modified form of SEQ ID NO: 169, unconjugated DAC compound] | 4.4
LQGPTLRAWRAGMA-GGGGGGGG-IEGPTLRQWLAARA-(OA)-K-(reactive group) (LQGPTLRAWRAGMAGGGGGGGGIEGPTLRQWLAARA-{Aoc-K(MPA)}) [MPA-modified form of SEQ ID NO: 191, unconjugated DAC compound] | <3

Same assay, conditions: female CD-1 mice, single subcutaneous injection of preformed albumin conjugate, 10 nmol/kg, 6 days postdose vs prior to dosing, n=4/group

Substance | Platelet Count Fold Increase [fold]
Albumin-conjugate of SEQ ID NO: 168: Preformed albumin conjugate (PC) of the MPA-modified TPO peptide of SEQ ID NO: 168 ({Propanoyl(3-maleimido)}-GGGGGIEGPTLRQWLAARAGGGGGGGGIEGPTLRQWLAARA; also: MPA-linked preformed albumin conjugate, site not given here) | 4.3
Albumin-conjugate of SEQ ID NO: 169: Preformed albumin conjugate (PC) of the MPA-modified TPO peptide of SEQ ID NO: 169 (IEGPTLRQWLAARAGGGGGGGGIEGPTLRQWLAARA-{Aoc-Aoc-MPA}; also: MPA-linked preformed albumin conjugate, site not given here) | 3.8
Albumin-conjugate of SEQ ID NO: 170: Preformed albumin conjugate (PC) of the MPA-modified TPO peptide of SEQ ID NO: 170 (IEGPTLRQWLAARAGGGGGGGGIEGPTLRQWLAARAK[Aoc]; not fully specified; printed as IEGPTLRQWLAARA-GGGGGGGG-IEGPTLRQWLAARA-K-OA-; also: MPA-linked preformed albumin conjugate, site not given here) | 4.4

Test system: not given
Test: not given
Details: phase I trials, adult and pediatric populations; cited from earlier work

Substance | Safety of administration
rhTPO: full length, glycosylated molecule known as recombinant human thrombopoietin | safe administration
